From a melting point compilation (Tetko et al.; mined from patent text by program, amines drawn as free bases though some values may be those of a salt)

Compared with `CC(=O)NC(CSSc1ccccc1C(=O)Nc1ccc(S(N)(=O)=O)cc1)C(=O)O` (stereo unspecified), `O=C(O)C(=O)CC(=O)c1cn(Cc2ccncc2)c2ccccc2c1=O` is higher in melting point: 218 to 220 °C for the first, greater than 300 °C for the second.

Compared with `CS(=O)(=O)c1cnc(-c2nn(Cc3ccccc3F)c3ncccc23)nc1N`, `O=S1(=O)c2ccccc2-c2nc3ccccc3c(Cl)c21` is lower in melting point: 272 °C for the first, 266 to 269 °C for the second.

Compared with `CC(=O)Nc1ccc(SCC(=O)NCC(=O)N(C)c2ccc(Cl)c(COc3cccc4ccc(C)nc34)c2Cl)cc1`, `CCOC(=O)c1ccccc1N(CC(=O)N(C)c1ccccc1)C(=O)CNC(=O)Nc1cccc(C(C)O)c1` (stereo unspecified) is higher in melting point: 179 to 180 °C for the first, 195 °C for the second.

First: CC(C)Cn1cccc1C(=O)C(C#N)C(=O)Nc1ccccc1 (stereo unspecified)
Second: CCC(=O)SCC(Cc1ccccc1)C(=O)Nc1cc(C)cc(C(=O)O)c1 (stereo unspecified)
The melting point of the first is lower: 134 to 136 °C for the first, 151 to 153 °C for the second.

First: Brc1ccc2c(ccn2Cc2ccccc2)c1
Second: O=C(O)Cn1cc(Cc2cccc([N+](=O)[O-])c2)c2ccccc21
The melting point of the first is lower: 90 °C for the first, 163 to 165 °C for the second.

First: CN1CCNC1=NC(=S)Nc1ccccc1
Second: Oc1nc(S)nc2c(-c3ccccc3)cnn12
The melting point of the first is lower: 205 to 208 °C for the first, 251 °C for the second.

First: O=C(CCCCN1CCCCC1)c1ccc2c(c1)Cc1cc(C(=O)CCCCN3CCCCC3)ccc1O2
Second: O=C1N=C(N2CCCCCCC2)SC1=Cc1cccc(-c2ccc(O)c(C34CC5CC(CC(C5)C3)C4)c2)c1
The melting point of the first is lower: 129 to 130 °C for the first, 284 to 286 °C for the second.

Compared with `CCOC(=O)c1c2c3c(cccc3n1C)C(OC)CC2` (stereo unspecified), `CCOC(=O)c1cc2cc(N(CC)C(C)=O)ccc2[nH]1` is higher in melting point: 63 to 64 °C for the first, 149 to 150 °C for the second.

First: O=C1CC2c3cc(F)ccc3CCN2C2CCCCC12 (stereo unspecified)
Second: O=C1Nc2ccc(C(F)(F)F)cc2C1c1ncnc2nn(C3CCCC3)cc12 (stereo unspecified)
The melting point of the first is lower: 130 to 136 °C for the first, 292 to 293 °C for the second.

First: CCOC(=O)[C@H](Cc1ccc(O)cc1)NC(=O)C(C)(C)NC(=O)[C@@H](SC(C)=O)C(C)C
Second: CC(=O)SCCNC(=O)[C@H](CSC(=O)C(C)(C)C)NC(=O)C(C)C
The melting point of the first is higher: 137 to 138 °C for the first, 101 to 103 °C for the second.

Compared with `COc1c(N2CC(C)C(NC3CC3)C(C)C2)c(F)cc2c(=O)c(C(=O)O)cn(C3CC3)c12` (stereo unspecified), `Nc1cc(-n2cc(C(=O)O)c(=O)c3cc(F)c(N4CC(N)C4)c(Cl)c32)ncc1F` is higher in melting point: 240 to 242 °C for the first, 280 °C for the second.

First: CCOC(=O)c1cc2c(C(F)(F)F)cc(OCC(=O)O)cc2n1C
Second: COCCOc1cc([N+](=O)[O-])c2[nH]c(C(=O)O)cc2c1
The melting point of the first is higher: 200 to 202 °C for the first, 192 to 193 °C for the second.

First: CC(C)(C)OC(=O)NCCCCNC(=O)COc1cccc(C(F)(F)F)c1
Second: O=C(COc1cccc(Cl)c1)NCCO[N+](=O)[O-]
The melting point of the first is higher: 86 °C for the first, 62 to 64 °C for the second.

First: CS(=O)(=O)c1ccccc1S(N)(=O)=O
Second: COC(=O)NNS(=O)(=O)c1ccccc1
The melting point of the first is higher: 249 to 250 °C for the first, 149 to 154 °C for the second.

Compared with `Oc1cc(-c2ccccc2)nc(O)n1`, `O=C(O)c1ccc(-c2nc(-c3ccncc3)cs2)cc1` is higher in melting point: 195 to 200 °C for the first, greater than 300 °C for the second.

Compared with `COc1ccc(Cl)c2c1c1c(n2Cc2ccccc2)CCCC1C(N)=O` (stereo unspecified), `NC(=O)OCC(Cc1ccccc1)NC(=O)C1CCN(c2c(Cl)cncc2Cl)CC1` (stereo unspecified) is lower in melting point: 205 to 208 °C for the first, 147 to 149 °C for the second.

Compared with `CC(c1ccc(OCCC2OCCCO2)cc1)(c1ccc(OCCC2OCCCO2)cc1)c1ccc(OCCC2OCCCO2)cc1`, `CC(C)Oc1ccc(C(=O)n2nc(Nc3ccc(OCc4ccccc4)cc3)nc2N)cc1` is lower in melting point: 101 °C for the first, 79 to 81 °C for the second.

Compared with `OCc1cc2ccc3ccc4ccccc4c3c2o1`, `OCc1ccc(Cn2nc(OCc3ccccc3)c3ccccc32)o1` is lower in melting point: 125 to 126 °C for the first, 80 to 82 °C for the second.

First: COC(=O)c1ccc(Cc2cccc3ccc(C=C(C)C(=O)O)cc23)c(OC)c1
Second: CCCc1oc2ccccc2c1C(=O)c1ccc(OCCBr)cc1
The melting point of the first is higher: 187 to 188 °C for the first, 68 to 70 °C for the second.

First: COC(=O)CNC(=O)NC(CSC(C)=O)Cc1ccccc1 (stereo unspecified)
Second: O=C(O)CCCCCCCNC(=O)C(CS)Cc1ccccc1 (stereo unspecified)
The melting point of the first is higher: 102 °C for the first, 81 to 83 °C for the second.

First: CC(C)n1c(=O)c(C(=O)NCC2CCN(CC3(O)CCOCC3)CC2)cc2c(Cl)cccc21
Second: Cc1ccc(NC(=O)c2cc(Cl)ccc2NCC2CCN(C3CCSC3)CC2)nc1 (stereo unspecified)
The melting point of the first is higher: 227 °C for the first, 151 to 153 °C for the second.

First: ClCCCc1nc2ccccn2n1
Second: Nc1c(Cl)ncnc1NCCc1ccccc1
The melting point of the first is lower: 56.5 to 57 °C for the first, 156 to 157 °C for the second.

First: O=C1c2ccccc2C2(c3ccc(Cl)cc3)NCCCCN12 (stereo unspecified)
Second: O=C1CCc2c1ccc1c2CCc2ccccc2-1
The melting point of the first is higher: 134 to 135 °C for the first, 127 to 128 °C for the second.

Compared with `CCCCCCCCOc1ccc(-c2ccc(C(C)O)cc2)cc1` (single isomer, unassigned; (-)), `CCOc1ccc(-c2ccc(Br)cc2)cc1` is higher in melting point: 124 °C for the first, 139 °C for the second.

Compared with `Cn1c(CO)nc2ncccc21`, `CN1NN=C(NC(=O)c2cccc3cccnc23)N1` is higher in melting point: 130 to 132 °C for the first, 222 to 223 °C for the second.

First: Cc1cc(C)c(Nc2nc(C)ncc2S(=O)(=O)c2ccc(-c3cccnc3)cc2)c(C)c1
Second: O=C1c2cc(OCc3ccc4cc(F)ccc4n3)ccc2OCC1Oc1cccnc1 (stereo unspecified)
The melting point of the first is higher: 190 to 192 °C for the first, 188 °C for the second.

Compared with `C[C@@H](c1ccc(Br)cc1)N(CC[C@](O)(CC(C)(C)O)c1ccccc1)C(=O)Oc1ccccc1`, `Cn1c(COc2ccc(Cn3cc(CCC(=O)O)c(-c4ccccc4)n3)cc2)nc2ccccc21` is higher in melting point: 129 to 131 °C for the first, 225 to 226 °C for the second.

Compared with `O=[N+]([O-])c1cnccc1NCCN1CCC(Nc2nc3ccccc3n2Cc2ccc(CO)o2)CC1`, `NNc1ccnc2c(NC(=O)c3ccccc3[N+](=O)[O-])cccc12` is higher in melting point: 191 °C for the first, 198 to 203 °C for the second.

Compared with `CSc1ccc(NC(=O)N(C)O)cc1C(F)(F)F`, `O=C(Nc1ccc(F)cc1)N(CCO)CCCCO` is lower in melting point: 125 °C for the first, 62 to 64 °C for the second.

First: CN(C)C(=O)Cc1cc(Br)ccc1I
Second: C=C(CNc1ccc2ncnc(Nc3cccc(Br)c3)c2c1)C(=O)OC
The melting point of the first is lower: 127 to 129 °C for the first, 157 to 162 °C for the second.

First: O=C(O)CCc1ccc(CCNC(=S)Cc2ccccc2)cc1
Second: COc1ccc(CCNCC(O)c2ccc(OCc3ccccc3)cc2OCc2ccccc2)cc1OC (stereo unspecified)
The melting point of the first is higher: 210 to 212 °C for the first, 116 to 117 °C for the second.

Compared with `CCCC12CCC3=C(CCc4cc(O)ccc43)C1CCC2O` (stereo unspecified), `CCCCCN1Cc2cc(C)ccc2CCC1=O` is lower in melting point: 210 to 218 °C for the first, 95 to 97 °C for the second.

Compared with `COc1cc(C)cc2nc(SCc3ccccc3)nn12`, `COc1ccc2c(c1)C(C#N)c1ccccc1CO2` (stereo unspecified) is higher in melting point: 85 to 87 °C for the first, 120 to 122 °C for the second.

First: Cc1nc2cc3c(cc2c(=O)[nH]1)C(N(C)c1ccc(C(=O)NC(C(=O)O)c2ccc(CC(=O)O)cc2)c(F)c1)CC3 (mixture of isomers)
Second: CCCc1nc(-n2c(C)ccc2C)c(/C=C/C(=O)O)n1Cc1ccc(-c2ccccc2-c2nnn[nH]2)cc1
The melting point of the first is higher: 196 to 200 °C for the first, 144 to 150 °C for the second.

First: COc1ccc2c(c1)cc(C=O)n2C
Second: CCOC(=O)CCc1ccc2cc(O)ccc2c1
The melting point of the first is lower: 88 to 90 °C for the first, 90 to 91 °C for the second.

Compared with `COC(=O)COc1cccc(CCNC(=O)/C=C/c2cccnc2)c1`, `CCOc1cc(CCC2OC(=O)NC2=O)ccc1O` (stereo unspecified) is higher in melting point: 102 to 104 °C for the first, 154 to 155 °C for the second.

First: COc1ccc(C(=O)N2c3ccccc3C(N3CCc4ccccc43)CC2C)cc1OC (stereo unspecified)
Second: COc1ccc(CNc2ccc(C#N)cc2)cc1OC
The melting point of the first is lower: 147 to 148 °C for the first, 150 °C for the second.

Compared with `On1c(-c2ccc(F)cc2)nc2ccc(Cn3ccnc3)cc21`, `CSc1c(-n2ccnc2)c(-c2ccc(Cl)c(Cl)c2)nn1C` is higher in melting point: 82 °C for the first, 88 to 90 °C for the second.

First: CCn1c(=O)c2cc(O)c(O)cc2c2cc(O)c(O)cc21
Second: Cc1ccc2c(c1)c(=O)c1c(cnn1C)n2-c1cccc(I)c1
The melting point of the first is higher: 309 to 310 °C for the first, 123 °C for the second.

First: O=C(Nc1ccc(C(=O)N2CCCCc3ccccc32)cc1)c1ccccc1OCCCCCCN1C(=O)c2ccccc2C1=O
Second: COc1ccccc1-n1c(-c2sc(Nc3ccccc3)nc2-c2ccccc2)nc2ccccc2c1=O
The melting point of the first is lower: 145 to 146 °C for the first, 224 to 225 °C for the second.

First: COc1cc2c(cc1C#Cc1ccc(C)cc1)C(C)(C)CCC2(C)C
Second: CCOC(=O)N1CCN(C2Cc3cc(C)ccc3Sc3ccccc32)CC1 (stereo unspecified)
The melting point of the first is higher: 127 °C for the first, 96 to 98 °C for the second.

Compared with `NS(=O)(=O)N1CC2(CCN(C(=O)Nc3nnc(-c4ccccc4)s3)CC2)c2ccccc21`, `Cc1oc(-c2ccccc2)nc1COc1ccc(COc2nn(Cc3ccccc3)cc2C=O)cc1` is lower in melting point: greater than 300 °C for the first, 133 to 134 °C for the second.

First: Clc1cc(Cl)cc(-c2n[nH]cc2Cl)c1
Second: C=Cc1c(NCc2ccco2)nc(-c2ccc(Cl)c(OC)c2F)nc1C(=O)OC
The melting point of the first is higher: 192 °C for the first, 100 to 102 °C for the second.

First: CNc1ccncc1N
Second: O=C(Nc1ccc(Cl)cc1)/C(Br)=C/Br
The melting point of the first is higher: 163 to 165 °C for the first, 99.5 to 100 °C for the second.

Compared with `CC(C(=O)O)c1ccc(CC(C)C(C)O)cc1` (stereo unspecified), `CC(C)N1C(=O)c2ccccc2C1CC(C)(C)O` (stereo unspecified) is lower in melting point: 85 to 88 °C for the first, 82 to 84 °C for the second.

First: Cn1c(=O)c2c(ncn2C(=O)CCC(=O)n2cnc3c2c(=O)n(C)c(=O)n3C)n(C)c1=O
Second: Cc1ccccc1CCC(C)(C)NC(=O)n1nc(N(C)C)n(N)c1=O
The melting point of the first is higher: 266 °C for the first, 117 °C for the second.

Compared with `CCOC(=O)C1=C(C)NC(N=CN(C)C)=C(C(=O)OCC)C1c1ccccc1[N+](=O)[O-]` (stereo unspecified), `CCCc1nc2c(N)nc3cc(-c4ccccc4)ccc3c2n1CCCC(C)N(OC)C(=O)NC(C)C` (stereo unspecified) is lower in melting point: 126 °C for the first, 101 to 103 °C for the second.

First: C=CCONC(=O)c1nc(-c2ccc(Cl)c(OC)c2F)nc(N)c1C=C
Second: CN1Cc2c(ccc(F)c2Cl)-n2c(c(C#CC(C)(C)O)[nH]c2=O)C1
The melting point of the first is lower: 98 to 101 °C for the first, 208 to 209 °C for the second.

First: CNC(=NC#N)NCCSCc1nsc(NC(=N)N)n1
Second: C=CCSc1nc(=O)n(C(=O)NC)s1
The melting point of the first is higher: 198 to 199 °C for the first, 110 °C for the second.

First: CN(S(C)(=O)=O)S(=O)(=O)N=C=O
Second: COC(=O)CCCCOc1cc2c(c(Cl)c1Cl)C(=O)C(C)(C1CCCC1)C2 (stereo unspecified)
The melting point of the first is higher: 140 °C for the first, 83 to 86 °C for the second.

Compound `CC(Cn1ncc2ccc(O)cc21)O[Si](C)(C)C(C)(C)C` (stereo unspecified) has a melting point of 169 to 174 °C.
